We go through six molecules from paper PMC11395566, “Novel Copper (II) Complexes with Fluorine-Containing Reduced Schiff Base Ligands Showing Marked Cytotoxicity in the HepG2 Cancer Cell Line” (International Journal of Molecular Sciences, 2024).

Values joined by “and” are separate entries in the source; they are usually repeats but may differ in a detail not shown here. Identical values can stand only once.

The target of one test is Jack bean urease (Canavalia ensiformis, UniProt P07374). The conditions noted are these: read-out: Urease inhibition IC50 ± SD, 15 min pre-incubation.
Chain of Jack bean urease (P07374 whole entry, looked up): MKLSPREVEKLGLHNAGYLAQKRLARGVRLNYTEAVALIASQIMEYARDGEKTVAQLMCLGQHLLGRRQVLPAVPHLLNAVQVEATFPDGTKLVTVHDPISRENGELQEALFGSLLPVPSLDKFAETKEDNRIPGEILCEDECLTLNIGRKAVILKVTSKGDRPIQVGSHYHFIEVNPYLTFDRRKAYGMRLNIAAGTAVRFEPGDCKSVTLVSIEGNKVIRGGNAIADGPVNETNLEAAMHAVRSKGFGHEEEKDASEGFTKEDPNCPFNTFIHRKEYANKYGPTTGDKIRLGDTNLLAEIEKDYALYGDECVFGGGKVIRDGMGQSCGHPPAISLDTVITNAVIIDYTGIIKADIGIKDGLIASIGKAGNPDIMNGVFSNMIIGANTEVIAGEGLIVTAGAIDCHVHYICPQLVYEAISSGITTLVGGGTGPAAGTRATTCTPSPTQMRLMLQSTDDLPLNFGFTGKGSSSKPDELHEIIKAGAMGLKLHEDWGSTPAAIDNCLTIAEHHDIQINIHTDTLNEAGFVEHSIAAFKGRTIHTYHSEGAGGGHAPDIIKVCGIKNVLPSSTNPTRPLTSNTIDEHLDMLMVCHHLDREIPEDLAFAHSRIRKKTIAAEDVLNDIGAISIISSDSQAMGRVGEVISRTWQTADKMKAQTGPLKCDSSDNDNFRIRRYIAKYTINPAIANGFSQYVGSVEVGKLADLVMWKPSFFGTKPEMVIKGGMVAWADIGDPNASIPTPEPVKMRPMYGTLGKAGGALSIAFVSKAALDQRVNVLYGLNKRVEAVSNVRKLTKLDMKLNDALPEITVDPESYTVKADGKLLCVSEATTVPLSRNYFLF
Test [1] relates to HepG2 hepatocellular carcinoma cells. In words: Cytotoxicity, MTT assay. It is filed as cell-based, human. The conditions noted are these: for IC50: HepG2, 24 h incubation, MTT. The procedure: The cytotoxic activity of the compounds L11–L14 and CuL11–CuL14 was evaluated in hepatocellular carcinoma HepG2 cells using the MTT assay. This colorimetric assay measures the reduction of the yellow tetrazolium salt 3-(4,5-dimethylthiazol-2-yl)-2,5-diphenyltetrazolium bromide (MTT) to purple formazan crystals by metabolically active cells.
HepG2 cells were seeded in 96-well plates at 70% confluency and pre-cultivated for 24 h before experiment in RPMI 1640 medium (Biosera, Cholet, France) with 10% fetal bovine serum, 1000 U·mL^−1 penicillin, and […] streptomycin, at 37 °C, 5% CO2 (maximum passage number 23).
HepG2 cells were incubated for 24 h with different concentrations (2–250 µM) of the tested compounds. The stock solutions of the compounds were freshly prepared in DMSO (Sigma-Aldrich, Burlington, MA, USA). Cells treated only with the RPMI 1640 medium served as a negative control, medium and DMSO served as a solvent control, and cells treated with cisplatin solution (Accord Healthcare, Harrow, UK) (2–250 µM) served as a positive control. After treatment, HepG2 cells were incubated for 4 h with MTT (Sigma Aldrich) solution (1mg/mL in PBS and complete RPMI medium). Then, the MTT solution was removed, and the formazan crystals were dissolved in DMSO for 30 min. The absorbance intensity was measured using an Epoch Spectrophotometer (BioTek, Winooski, VT, USA) at 570 nm. The experiments were performed in triplicate and cell cytotoxicity was expressed as a percentage relative to the untreated cells. Unexposed cells were used as a control and considered as having 100% cell viability. The viability of cells was calculated using the following formula:Viable cells (%) = A (treated cells)/A (control cells) × 100
The IC50 values were calculated using a four-parameter logistic regression model.
In general terms: Tetrazolium assays rely on reduction of a dye to a coloured formazan, in cell work by metabolically active cells.

For test [2], the system named is S. aureus CNCTC Mau 29/58. As to the kind of experiment: Antimicrobial activity, broth dilution method. Type of test: cell-based, Staphylococcus aureus. Particulars: 24 h, 37 °C. The procedure: (§1) The antimicrobial activities of the synthesized copper (II) complexes were evaluated against E. coli CNCTC 377/79 (Gram-negative bacterium), S. aureus CNCTC Mau 29/58 (Gram-positive bacterium), and the yeast C. albicans CCM 8186. Bacterial strains were obtained from the Czech National Collection of Type Cultures (National Institute of Public Health, Prague, Czech Republic) and the yeast was purchased from the Czech Collection of Microorganisms (Masaryk University, Brno, Czech Republic). Bacteria were grown aerobically in nutrient broth (IMUNA PHARM, Šarišské Michaľany, Slovakia) and the yeast in BD Difco Sabouraud dextrose broth (Becton, Dickinson and Company, Franklin Lakes, NJ, USA) for 18 h at 37 °C or 48 h at 24 °C, respectively. Cultures were then maintained at 4 °C on appropriate solid medium: Endo agar (Oxoid Ltd., Basingstoke, UK) for E. coli, blood agar (Biomark Laboratories, Pune, India) for S. aureus, and BD Sabouraud dextrose agar (Becton, Dickinson and Company, Franklin Lakes, NJ, USA) for C. albicans. Working cultures were prepared by the incubation of a single colony of each microorganism in NB (bacteria) or SDB (yeast) for 18 h at 37 °C or 48 h at 24 °C, respectively. A microbial suspension was prepared in saline solution (0.85% NaCl) according to McFarland standard No 0.5 using a Lambda 35 UV/VIS Spectrophotometer (PerkinElmer Inc., Shelton, CT, USA) to obtain a turbidity (concentration) of ca 1.5 × 10^8 cfu/cm^3. After the dilution in the appropriate liquid medium (NB for bacteria and SDB for yeast), a working turbidity of 1.5 × 10^7 cfu/cm^3 was prepared.
(§2) Antimicrobial activity was determined using the broth dilution method as described in [7]. Stock solutions with initial concentrations of approx. 45 mM for ligands and 27 mM for copper complexes were prepared in DMSO immediately before use. For comparison, ciprofloxacine was used as a standard compound. Working test ligands and copper complexes were prepared by the two-fold serial dilution of stock solutions in sterile doubly concentrated NB or SDB to a final volume 100 mm^3 within the 96-well microplates. Freshly prepared inoculum (5 mm^3) of the tested microorganism was added to each appropriate well (bacteria into the plates with NB, C. albicans into the plates with SDB). The final turbidity of each microorganism in each well was ca 7.5 × 10^5 cfu/cm^3. […] Each concentration was assayed in triplicate. […]
On the technique in general: Broth dilution looks for growth in wells or tubes with falling amounts of substance.

A further test deals with E. coli CNCTC 377/79. As to the kind of experiment: Antimicrobial activity, broth dilution method. Particulars: 24 h, 37 °C. Type of test: cell-based, Escherichia coli. The procedure: as §1, §2
Test [3] deals with T1, bovine serum albumin (BSA).
T1 construct: Bovine serum albumin (BSA) was chosen over human serum albumin (HSA) as the model protein target; purchased Sigma-Aldrich
In words: Interaction with BSA by quenching of tryptophane fluorescence. It is filed as binding. Particulars: for BSA binding constant K: Scatchard equation; for BSA fluorescence quenching rate constant kq / BSA fluorescence dynamic quenching constant Ksv: Stern–Volmer equation, 30 µM BSA in citrate buffer; for BSA fluorescence dynamic quenching constant Ksv: emission 336 nm. Here is the method:
The interaction of all prepared copper complexes with BSA was studied by quenching the BSA fluorescence. BSA was dissolved in citrate buffer at the initial concentration of 30 µM. The quenching of the emission intensity of BSA tryptophane residues at 336 nm was monitored using the tested complexes (1 mM solution in DMSO) as quenchers with gradually increasing concentrations. The fluorescence emission spectra were recorded in the range of 300–420 nm. The wavelength of the excitation radiation was 280 nm. Measured data were used to study the interaction of a quencher with serum albumins using the Stern–Volmer (Equation (1)) and Scatchard (Equation (2)) equations, obtaining the Stern–Volmer constant KSV (M^−1), BSA quenching constant kq (M^−1 s^−1), binding constants KBSA (M^−1), and values of the number of binding sites n on albumin [45]. (1) I0/I=1+kqτ0 [Q]=1+KSV [Q] (2) ΔI/I0/[Q]=nKBSA−KBSAΔI/I0 where I0 = initial tryptophane fluorescence intensity of BSA, I = tryptophane fluorescence intensity of BSA after the addition of the complex, kq = quenching rate constant of BSA, KSV = dynamic quenching constant, τ0 = the average lifetime of BSA without the quencher, and [Q] = concentration of the quencher. KBSA is the bovine serum albumin binding constant and n is the number of binding sides per albumin.

For a further test, the system named is C. albicans CCM 8186. As to the kind of experiment: Antimicrobial activity, broth dilution method. Type of test: cell-based, Candida albicans. The conditions noted are these: 24 h, 24 °C. The procedure: as §1, §2
A further test has as its system calf thymus DNA (ct-DNA). As to the kind of experiment: Quenching of the fluorescence of EB-DNA adduct (ethidium bromide displacement). Type of test: binding. Particulars: for EB-DNA dynamic quenching constant Ksv / EB-DNA fluorescence quenching rate constant kq: Stern–Volmer equation; for ΔI/I0, quenching of EB-DNA fluorescence: complex 0 to 2 × 10^−4 M. Here is the method:
A stock solution of ct-DNA was prepared by dissolving 6 mg of ct-DNA in 5 mL of citrate buffer. The ability of the compounds to displace EB from its EB-DNA conjugate was investigated by fluorescence emission spectroscopy. The EB-DNA conjugate was prepared by adding 20 µM EB and 26 µM ct-DNA to citrate buffer. The measurements were performed by the gradual addition of the complex solution in DMSO (1 mM) to the EB-DNA conjugate solution and observing the changes in the fluorescence spectra. The spectra were recorded in the range of 550–700 nm and the excitation wavelength was set to 515 nm. The Stern–Volmer constant KSV was used to evaluate the quenching efficiency of the complexes according to the Stern–Volmer equation (Equation (1)).

Method for Jack bean urease: The urease inhibition activity of complexes was determined using the modified method reported by [48]. The assay mixture, containing 75 μL of Jack bean urease and 75 μL of the tested compounds with various concentrations dissolved in DMSO, was pre-incubated for 15 min on a 96-well assay. Afterwards, 75 μL of phosphate buffer at pH 6.8 (containing phenol red 0.18 mM) and urea (400 mM) were added and incubated at room temperature. We used microplate reader (560 nm) to measure the reaction time required for enough ammonium carbonate to form to raise the pH of the phosphate buffer from 6.8 to 7.7. The end-point of the reaction was determined by the color change of the phenol red indicator. Acetohydroxamic acid was used as a reference.

On to `CC(=O)NO` [acetohydroxamic acid], for which the IC50 at Jack bean urease came out at 185 µM.
As to `N.N.[Cl][Pt][Cl]` [cisplatin, reference compound], the IC50 in test [1] was 337 ± 6.7 µM.
As to “Dichloro[(±)-trans-N,N′-bis-(3,5-bis-trifluoromethylbenzyl)-cyclohexane-1,2-diamine]copper (II) [Cu-L14]”, in test [2], the “MIC S. aureus” value worked out at 213.2 µM. The “MIC E. coli” value against E. coli CNCTC 377/79 stood at 213.2 µM. In test [3], the “BSA binding constant K” value is 5.13 (±0.50) × 10^3 M^−1, the “BSA fluorescence quenching rate constant kq” value was 6.39 (±0.19) × 10^11 M^−1s^−1 and the “BSA fluorescence dynamic quenching constant Ksv” value is reported as 6.39 (±0.19) × 10^3 M^−1. In addition, the “MIC C. albicans” value in the test with C. albicans CCM 8186 was 1705.6 µM. Further, in the test with calf thymus DNA (ct-DNA), the “EB-DNA dynamic quenching constant Ksv” value is listed as 3.50 (±0.09) M^−1 × 10^3; the “EB-DNA fluorescence quenching rate constant kq” value is given as 1.52 (±0.04) M^−1 s^−1 × 10^11; the “ΔI/I0, quenching of EB-DNA fluorescence” value is on record as 60.7%. The same molecule returned an IC50 in test [1] of 189 ± 7.1 µM.
As to “Dichloro[(±)-trans-N,N′-bis-(3,5-difluorobenzyl)-cyclohexane-1,2-diamine]copper (II) [Cu-L13]”, the “MIC S. aureus” value in test [2] is 424.5 µM. In addition, the “MIC E. coli” value in the test with E. coli CNCTC 377/79 turned out to be 212.3 µM. In addition, in test [3], the “BSA binding constant K” value was 4.70 (±0.32) × 10^3 M^−1; the “BSA fluorescence quenching rate constant kq” value was 8.46 × 10^11 M^−1s^−1 and 8.46 (±0.26) × 10^11 M^−1s^−1; the “BSA fluorescence dynamic quenching constant Ksv” value is 8.46 (±0.26) × 10^3 M^−1. For the same molecule, in the test with C. albicans CCM 8186, the “MIC C. albicans” value is 1698.1 µM. Besides, in the test with calf thymus DNA (ct-DNA), the “EB-DNA dynamic quenching constant Ksv” value was 3.51 (±0.08) M^−1 × 10^3; the “EB-DNA fluorescence quenching rate constant kq” value is given as 1.53 (±0.03) M^−1 s^−1 × 10^11; the “ΔI/I0, quenching of EB-DNA fluorescence” value came to 60.3%. In test [1], this molecule displayed an IC50 of 64.4 ± 3.2 µM.
Consider “Dichloro[(±)-trans-N,N′-bis-(4-fluorobenzyl)-cyclohexane-1,2-diamine]copper (II) [Cu-L11]”, for which the “MIC S. aureus” value in test [2] is 217.3 µM. Further, the “MIC E. coli” value in the test with E. coli CNCTC 377/79 was 217.3 µM. Moreover, in test [3], the “BSA binding constant K” value is reported as 5.99 (±0.44) × 10^3 M^−1, the “BSA fluorescence quenching rate constant kq” value worked out at 3.88e+11 M⁻¹ s⁻¹ and the “BSA fluorescence dynamic quenching constant Ksv” value was 3.90 (±0.08) × 10^3 M^−1. The “MIC C. albicans” value against C. albicans CCM 8186 came out at 1738.1 µM. Also, in the test on calf thymus DNA (ct-DNA), the “EB-DNA fluorescence quenching constant (kq)” value worked out at 1.48e+11 M⁻¹ s⁻¹; the “EB-DNA dynamic quenching constant Ksv” value is on record as 3.40 (±0.08) M^−1 × 10^3; the “EB-DNA fluorescence quenching rate constant kq” value is on record as 1.48 (±0.04) M^−1 s^−1 × 10^11; the “ΔI/I0, quenching of EB-DNA fluorescence” value is listed as 61.3%. The IC50 in test [1] is 61.3 ± 3.4 µM.
For the molecule “Dichloro[(±)-trans-N,N′-bis-(4-trifluoromethylbenzyl)-cyclohexane-1,2-diamine]copper (II) [Cu-L12]”, in test [2], the “MIC S. aureus” value is 26.7 µM. Moreover, the “MIC E. coli” value in the test with E. coli CNCTC 377/79 was 26.7 µM. Besides, in test [3], the “BSA binding constant K” value is 8.59 (±0.64) × 10^3 M^−1, the “BSA fluorescence quenching rate constant kq” value is recorded as 5.62 (±0.20) × 10^11 M^−1s^−1 and the “BSA fluorescence dynamic quenching constant Ksv” value is 5.62 (±0.20) × 10^3 M^−1. Besides, the “MIC C. albicans” value in the test on C. albicans CCM 8186 stood at 855.3 µM. Also, in the test with calf thymus DNA (ct-DNA), the “EB-DNA dynamic quenching constant Ksv” value is reported as 3.58 (±0.09) M^−1 × 10^3; the “EB-DNA fluorescence quenching rate constant kq” value is 1.56 (±0.04) M^−1 s^−1 × 10^11; the “ΔI/I0, quenching of EB-DNA fluorescence” value was 59.7%. Half-maximal inhibition in test [1] (IC50) required 28.7 ± 2 µM. The cell survival in test [1] (HepG2, at a 50 µM concentration) amounted to 9.40%.

One may read the IC50 as the concentration at which inhibition is half-maximal.
